Laboratory results reported in US20230265151A1, “GIP/GLP1 CO-AGONIST COMPOUNDS” (priority 2020, published 2023).
Read-outs that look alike come from different tables or passages of the source.

Assays:
[1] = target: T1, human GLP-1 receptor (hGLP-1R) (Homo sapiens, UniProt P43220); test: [125I]-GLP-1 binding, SPA with membranes of HEK293 cells expressing hGLP-1R; conditions: human GLP-1R; geometric mean (SEM, n); read-out: Binding Affinity Ki, nM (SEM, n) hGLP-1R
T1 construct: expressed in transfected cells; crude membranes

[2] = target: T2, human GIP receptor (hGIPR) (Homo sapiens, UniProt P48546); test: [125I]-GIP binding, SPA with membranes of CHO cells expressing hGIPR; conditions: human GIPR; geometric mean (SEM, n); read-out: Binding Affinity Ki, nM (SEM, n) hGIPR
T2 construct: expressed in transfected cells; crude membranes
T2 sequence (P48546 22-466): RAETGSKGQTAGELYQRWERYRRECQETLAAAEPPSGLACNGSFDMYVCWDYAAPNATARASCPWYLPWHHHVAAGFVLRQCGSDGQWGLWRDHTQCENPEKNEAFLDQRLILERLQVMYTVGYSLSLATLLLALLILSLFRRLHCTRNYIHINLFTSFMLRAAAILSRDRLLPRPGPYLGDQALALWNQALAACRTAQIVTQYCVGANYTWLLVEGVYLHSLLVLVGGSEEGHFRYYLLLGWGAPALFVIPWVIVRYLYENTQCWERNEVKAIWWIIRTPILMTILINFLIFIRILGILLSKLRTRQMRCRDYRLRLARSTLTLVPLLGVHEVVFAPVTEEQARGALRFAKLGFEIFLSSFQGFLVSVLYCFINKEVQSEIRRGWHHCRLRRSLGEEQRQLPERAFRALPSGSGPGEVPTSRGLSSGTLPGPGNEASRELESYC

[3] = target: T3, hGIPR (Homo sapiens, UniProt P48546); test: Functional cAMP formation (HTRF) in HEK-293 clonal cells expressing hGIPR, 0.1% bovine casein, without or with 1.0% human serum albumin; format: cell-based; conditions: 37° C.; for Emax: HEK293, cAMP, percent of maximal response to GIP(1-42)NH2, read-out: hGIPR Emax, % ± SEM; for EC50: cAMP, read-out: hGIPR EC50, nM (SEM, n)
T3 construct: expressed in transfected cells
T3 sequence (P48546 22-466): T2 sequence (P48546 22-466)
Outline: (§1)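 Cells were stimulated with peptide for 30 min at 37° C, then lysed in buffer carrying cAMP-d2 and anti-cAMP Eu3+-cryptate for a competitive HTRF read after at least 60 min at room temperature. The 665/620 nm ratio was converted to nM cAMP against a standard curve.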

[4] = target: T4, hGCGR (Homo sapiens, UniProt P47871); test: Functional cAMP formation (HTRF) in HEK-293 clonal cells expressing hGCGR, 0.1% bovine casein, without or with 1.0% human serum albumin; format: cell-based; conditions: cAMP, 37° C., read-out: hGCGR EC50, nM (SEM, n)
T4 construct: expressed in transfected cells
Outline: as §1

[5] = target: hGLP-1R (Homo sapiens, UniProt P43220); test: Functional cAMP formation (HTRF) in HEK-293 clonal cells expressing hGLP-1R, 0.1% bovine casein, without or with 1.0% human serum albumin; format: cell-based; parameters: expressed in transfected cells; conditions: 37° C.; for Emax: HEK293, cAMP, percent of maximal response to GLP-1(7-36)NH2, read-out: hGLP-1R Emax, % ± SEM; for EC50: cAMP, read-out: hGLP-1R EC50, nM (SEM, n)
Outline: as §1

[6] = 0.1% bovine casein and 1.0% human serum albumin
[7] = 0.1% bovine casein (no human serum albumin), geometric mean
[8] = 0.1% bovine casein and 1.0% human serum albumin, geometric mean (SEM, n)
[9] = 0.1% bovine casein, arithmetic mean

T1 sequence (P43220 24-463): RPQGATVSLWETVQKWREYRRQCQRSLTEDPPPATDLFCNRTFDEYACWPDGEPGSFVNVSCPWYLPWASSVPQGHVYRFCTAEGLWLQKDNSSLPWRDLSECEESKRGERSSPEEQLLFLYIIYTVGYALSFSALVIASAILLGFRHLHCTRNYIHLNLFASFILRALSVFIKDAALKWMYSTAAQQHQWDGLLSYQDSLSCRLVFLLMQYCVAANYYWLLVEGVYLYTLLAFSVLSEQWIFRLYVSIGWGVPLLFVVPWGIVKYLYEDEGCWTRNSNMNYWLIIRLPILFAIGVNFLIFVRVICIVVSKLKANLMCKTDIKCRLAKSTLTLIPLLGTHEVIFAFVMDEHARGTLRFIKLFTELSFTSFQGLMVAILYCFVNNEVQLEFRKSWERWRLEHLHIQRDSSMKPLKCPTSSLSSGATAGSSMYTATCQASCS
Chain of hGLP-1R (P43220 24-463): as above
T4 sequence (P47871 26-477): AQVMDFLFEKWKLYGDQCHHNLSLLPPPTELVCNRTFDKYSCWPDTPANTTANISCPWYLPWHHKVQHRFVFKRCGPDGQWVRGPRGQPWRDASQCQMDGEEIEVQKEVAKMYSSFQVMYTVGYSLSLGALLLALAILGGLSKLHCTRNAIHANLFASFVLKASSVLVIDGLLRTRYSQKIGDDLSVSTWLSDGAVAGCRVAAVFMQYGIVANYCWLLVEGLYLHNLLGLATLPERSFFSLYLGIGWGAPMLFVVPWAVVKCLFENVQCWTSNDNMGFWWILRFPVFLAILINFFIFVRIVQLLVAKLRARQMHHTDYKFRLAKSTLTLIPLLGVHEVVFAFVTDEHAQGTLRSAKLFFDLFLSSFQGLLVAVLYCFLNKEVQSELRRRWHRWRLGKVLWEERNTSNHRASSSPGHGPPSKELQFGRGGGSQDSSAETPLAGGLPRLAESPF

Row | SMILES | Ki [1] | Ki [2] | Emax [3, 6] | EC50 [3, 7] | EC50 [4, 7] | EC50 [4, 8] | Emax [5, 6] | Emax [5, 9] | EC50 [5, 7] | EC50 [3, 8] | EC50 [5, 8]
1 | CC[C@H](C)[C@H](NC(=O)[C@H](CC(C)C)NC(=O)[C@](C)(Cc1ccc(O)cc1)NC(=O)[C@H](CCCCNC(=O)COCCOCCNC(=O)COCCOCCNC(=O)CC[C@H](NC(=O)CCCCCCCCCCCCC(=O)O)C(=O)O)NC(=O)[C@@H](NC(=O)[C@H](Cc1ccccc1)NC(=O)[C@H](CCCN)NC(=O)C(C)(C)NC(=O)[C@H](CCC(N)=O)NC(=O)[C@H](C)NC(=O)[C@H](CCC(N)=O)NC(=O)[C@H](CCCN)NC(=O)[C@H](CC(=O)O)NC(=O)[C@H](CC(C)C)NC(=O)[C@](C)(CC(C)C)NC(=O)[C@@H](NC(=O)C(C)(C)NC(=O)[C@H](Cc1ccncc1)NC(=O)[C@H](CC(=O)O)NC(=O)[C@H](CO)NC(=O)[C@@H](NC(=O)[C@](C)(Cc1ccccc1F)NC(=O)[C@@H](NC(=O)CNC(=O)[C@H](CCC(=O)O)NC(=O)C(C)(C)NC(=O)[C@@H](N)Cc1ccc(O)cc1)[C@@H](C)O)[C@@H](C)O)[C@@H](C)CC)[C@@H](C)CC)C(=O)N[C@@H](CCCCNC(=O)COCCOCCNC(=O)COCCOCCNC(=O)CC[C@H](NC(=O)CCCCCCCCCCCCC(=O)O)C(=O)O)C(=O)NCC(=O)NCC(=O)N1CCC[C@H]1C(=O)N[C@@H](CO)C(=O)N[C@@H](CO)C(=O)NCC(=O)N[C@@H](C)C(=O)N1CCC[C@H]1C(=O)N1CCC[C@H]1C(=O)N1CCC[C@H]1C(=O)N[C@@H](CO)C(N)=O [Example 391] | 0.346 nM | 0.0279 nM | 88.3% | 0.0101 nM | > 9950 nM | > 9950 nM | 105% | 109% | 0.167 nM | – | –
2 | CCCCCCCCCCCC(=O)N[C@@H](CCC(=O)NCCOCCOCC(=O)NCCOCCOCC(=O)NCCCC[C@H](NC(=O)[C@H](CCCN)NC(=O)[C@H](CC(=O)O)NC(=O)[C@H](CC(C)C)NC(=O)[C@](C)(CC(C)C)NC(=O)[C@@H](NC(=O)C(C)(C)NC(=O)[C@H](Cc1ccncc1)NC(=O)[C@H](CC(=O)O)NC(=O)[C@H](CO)NC(=O)[C@@H](NC(=O)[C@](C)(Cc1ccccc1F)NC(=O)[C@@H](NC(=O)CNC(=O)[C@H](CCC(=O)O)NC(=O)C(C)(C)NC(=O)[C@@H](N)Cc1ccc(O)cc1)[C@@H](C)O)[C@@H](C)O)[C@@H](C)CC)C(=O)N[C@@H](C)C(=O)N[C@@H](CCC(N)=O)C(=O)NC(C)(C)C(=O)N[C@@H](CCCN)C(=O)N[C@@H](Cc1ccccc1)C(=O)N[C@H](C(=O)N[C@H](CCC(=O)O)C(=O)N[C@@](C)(Cc1ccc(O)cc1)C(=O)N[C@@H](CC(C)C)C(=O)N[C@H](C(=O)N[C@@H](CCCCNC(=O)COCCOCCNC(=O)COCCOCCNC(=O)CC[C@H](NC(=O)CCCCCCCCCCC)C(=O)O)C(=O)NCC(=O)NCC(=O)N1CCC[C@H]1C(=O)N[C@@H](CO)C(=O)N[C@@H](CO)C(=O)NCC(=O)N[C@@H](C)C(=O)N1CCC[C@H]1C(=O)N1CCC[C@H]1C(=O)N1CCC[C@H]1C(=O)N[C@@H](CO)C(N)=O)[C@@H](C)CC)[C@@H](C)CC)C(=O)O [Example 414] | 0.194 nM | 0.0229 nM | 92.2% | 0.00961 nM | > 9950 nM | > 9950 nM | – | – | 0.119 nM | 0.274 nM | –
3 | CCCCCCCCCCCC(=O)N[C@@H](CCC(=O)NCCOCCOCC(=O)NCCOCCOCC(=O)NCCCC[C@H](NC(=O)[C@H](CCCN)NC(=O)[C@H](CC(=O)O)NC(=O)[C@H](CC(C)C)NC(=O)[C@](C)(CC(C)C)NC(=O)[C@@H](NC(=O)C(C)(C)NC(=O)[C@H](CCCCNC(=O)COCCOCCNC(=O)COCCOCCNC(=O)CC[C@H](NC(=O)CCCCCCCCCCC)C(=O)O)NC(=O)[C@H](CC(=O)O)NC(=O)[C@H](CO)NC(=O)[C@@H](NC(=O)[C@](C)(Cc1ccccc1F)NC(=O)[C@@H](NC(=O)CNC(=O)[C@H](CCC(=O)O)NC(=O)C(C)(C)NC(=O)[C@@H](N)Cc1ccc(O)cc1)[C@@H](C)O)[C@@H](C)O)[C@@H](C)CC)C(=O)N[C@@H](C)C(=O)N[C@@H](CCC(N)=O)C(=O)NC(C)(C)C(=O)N[C@@H](Cc1ccncc1)C(=O)N[C@@H](Cc1ccccc1)C(=O)N[C@H](C(=O)N[C@H](CCC(=O)O)C(=O)N[C@@](C)(Cc1ccc(O)cc1)C(=O)N[C@@H](CC(C)C)C(=O)N[C@H](C(=O)N[C@@H](CCC(=O)O)C(=O)NCC(=O)NCC(=O)N1CCC[C@H]1C(=O)N[C@@H](CO)C(=O)N[C@@H](CO)C(=O)NCC(=O)N[C@@H](C)C(=O)N1CCC[C@H]1C(=O)N1CCC[C@H]1C(=O)N1CCC[C@H]1C(=O)N[C@@H](CO)C(N)=O)[C@@H](C)CC)[C@@H](C)CC)C(=O)O [Example 415] | 0.156 nM | 0.0152 nM | 93.9% | 0.00991 nM | > 9950 nM | > 9950 nM | – | 109% | 0.122 nM | – | –
4 | CCCCCCCCCCCC(=O)N[C@@H](CCC(=O)NCCOCCOCC(=O)NCCOCCOCC(=O)NCCCC[C@H](NC(=O)[C@H](CCCN)NC(=O)[C@H](CC(=O)O)NC(=O)[C@H](CC(C)C)NC(=O)[C@](C)(CC(C)C)NC(=O)[C@@H](NC(=O)C(C)(C)NC(=O)[C@H](CCCCNC(=O)COCCOCCNC(=O)COCCOCCNC(=O)CC[C@H](NC(=O)CCCCCCCCCCC)C(=O)O)NC(=O)[C@H](CC(=O)O)NC(=O)[C@H](CO)NC(=O)[C@@H](NC(=O)[C@](C)(Cc1ccccc1F)NC(=O)[C@@H](NC(=O)CNC(=O)[C@H](CCC(=O)O)NC(=O)C(C)(C)NC(=O)[C@@H](N)Cc1ccc(O)cc1)[C@@H](C)O)[C@@H](C)O)[C@@H](C)CC)C(=O)N[C@@H](C)C(=O)N[C@@H](CCC(N)=O)C(=O)NC(C)(C)C(=O)N[C@@H](CCCN)C(=O)N[C@@H](Cc1ccccc1)C(=O)N[C@H](C(=O)N[C@H](CCC(=O)O)C(=O)N[C@@](C)(Cc1ccc(O)cc1)C(=O)N[C@@H](CC(C)C)C(=O)N[C@H](C(=O)N[C@@H](CCC(=O)O)C(=O)NCC(=O)NCC(=O)N1CCC[C@H]1C(=O)N[C@@H](CO)C(=O)N[C@@H](CO)C(=O)NCC(=O)N[C@@H](C)C(=O)N1CCC[C@H]1C(=O)N1CCC[C@H]1C(=O)N1CCC[C@H]1C(=O)N[C@@H](CO)C(N)=O)[C@@H](C)CC)[C@@H](C)CC)C(=O)O [Example 417] | 0.167 nM | 0.0214 nM | 96.4% | 0.00651 nM | > 9950 nM | > 9950 nM | – | 109% | 0.0675 nM | – | 2.66 nM
5 | CCCCCCCCCCCC(=O)N[C@@H](CCC(=O)NCCOCCOCC(=O)NCCOCCOCC(=O)NCCCC[C@H](NC(=O)[C@H](CCCN)NC(=O)[C@H](CC(=O)O)NC(=O)[C@H](CC(C)C)NC(=O)[C@](C)(CC(C)C)NC(=O)[C@@H](NC(=O)C(C)(C)NC(=O)[C@H](Cc1ccncc1)NC(=O)[C@H](CC(=O)O)NC(=O)[C@H](CO)NC(=O)[C@@H](NC(=O)[C@](C)(Cc1ccccc1F)NC(=O)[C@@H](NC(=O)CNC(=O)[C@H](CCC(=O)O)NC(=O)C(C)(C)NC(=O)[C@@H](N)Cc1ccc(O)cc1)[C@@H](C)O)[C@@H](C)O)[C@@H](C)CC)C(=O)N[C@@H](C)C(=O)N[C@@H](CCC(N)=O)C(=O)NC(C)(C)C(=O)N[C@H](C(=O)N[C@@H](Cc1ccccc1)C(=O)N[C@H](C(=O)N[C@H](CCC(=O)O)C(=O)N[C@@](C)(Cc1ccc(O)cc1)C(=O)N[C@@H](CC(C)C)C(=O)N[C@H](C(=O)N[C@@H](CCCCNC(=O)COCCOCCNC(=O)COCCOCCNC(=O)CC[C@H](NC(=O)CCCCCCCCCCC)C(=O)O)C(=O)NCC(=O)NCC(=O)N1CCC[C@H]1C(=O)N[C@@H](CO)C(=O)N[C@@H](CO)C(=O)NCC(=O)N[C@@H](C)C(=O)N1CCC[C@H]1C(=O)N1CCC[C@H]1C(=O)N1CCC[C@H]1C(=O)N[C@@H](CO)C(N)=O)[C@@H](C)CC)[C@@H](C)CC)[C@@H](C)O)C(=O)O [Example 419] | 0.265 nM | 0.0166 nM | 88.2% | 0.00958 nM | > 9950 nM | > 9950 nM | 97.3% | 113% | 0.132 nM | 0.44 nM | –
